Experimental data: US11414424B2, “Cardiac sarcomere inhibitors” (Cytokinetics, Inc., priority 2018, dated 2022)

Legend:
[1] = system: bovine cardiac myofibrils; assay: Myofibril assay: PK/LDH-coupled steady-state ATPase activity of skinned bovine cardiac myofibrils; format: biochemical; settings: Ca2+ activating to 75% of maximal rate
Method in brief: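 Steady-state ATPase of detergent-skinned bovine left-ventricular myofibrils (1 mg/mL), PK/LDH-coupled NADH read at 340 nm, in PIPES/MgCl2 buffer pH 6.8 with 50 μM ATP, 0.6 mM EGTA and CaCl2 set for 50% or 75% activation. Inhibition of activity measured.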

[2] = system: adult cardiac ventricular rat myocytes; assay: Adult ventricular myocyte contractility (fractional shortening); format: cell-based; settings: 5 min perfusion
Experimental: Adult male Sprague-Dawley rats were anesthetized and the hearts were quickly excised, rinsed and the ascending aorta was cannulated. Continuous retrograde perfusion was initiated on the hearts at a perfusion pressure of 60 cm H2O. Hearts were first perfused with a nominally Ca^2+-free modified Krebs solution of the following composition: 113 mM NaCl, 4.7 mM KCl, 0.6 mM KH2PO4, 0.6 mM Na2HPO4, 1.2 mM MgSO4, 12 mM NaHCO3, 10 mM KHCO3, 30 mM taurine, 5.5 mM glucose and 10 mM Hepes (all Sigma). This medium was not recirculated and was continually aerated with a 95% O2/5% CO2 mixture. After approximately 3 minutes, the heart was perfused with a modified Krebs buffer supplemented with collagenase (Worthington) and 12.5 μM final calcium concentration. The heart was removed from the cannulae after the heart appeared blanched and soft in appearance. The atria and vessels were removed and the ventricles were gently dissected into smaller pieces with forceps. The tissue was homogenized by repeated pipette trituration and the collagenase reaction was stopped by 10% bovine calf serum (BCS), sedimentation and resuspension in perfusion buffer containing 5% BCS and 12.5 uM CaCl2. Myocytes were made calcium tolerant by stepwise addition of a CaCl2 solution to a final concentration of 1.2 mM. Cells were then washed and resuspended in Tyrode's buffer (137 mM NaCl, 3.7 mM KCl, 0.5 mM MgCl, 11 mM glucose, 4 mM Hepes, and 1.2 mM CaCl2, pH 7.4). Cells were kept for 60 min at 37° C. prior to initiating experiments and used within 5 hrs of isolation. […] Additionally, only cells whose basal contractility was between 3 and 8% were used in subsequent experiments with compounds.
Aliquots of myocytes in Tyrode's buffer were placed in perfusion chambers (series 20 RC-27NE; Warner Instruments) complete with heating platforms. Myocytes were allowed to attach, the chambers were heated to 37° C., and the cells were perfused with 37° C. Tyrode's buffer. Myocytes were field stimulated at 1 Hz in with platinum electrodes (20% above threshold). Only cells that had clear striations and were quiescent prior to pacing were used for contractility experiments. To determine basal contractility, myocytes were imaged through a 40× objective. […] Once cell contraction was stable over time, test compounds (0.01-15 μM) were perfused into the chambers on the myocytes for 5 minutes. Contractility of the myocytes and contraction and relaxation velocities were then recorded using edge detection.
Five or more individual myocytes were tested per compound from two or more different myocyte preparations. For each cell, twenty or more contractility transients at basal (defined as 1 min prior to compound infusion) and after compound addition (defined as 5 min after starting compound perfusion), were averaged and compared. These average transients were analyzed using the IonWizard software (IonOptix) to determine changes in diastolic length and fractional shortening. Fractional shortening was calculated as: ((resting length−length at peak contraction) divided by the resting length). The percent change in fractional shortening from baseline was calculated as: ((post-dose fractional shortening/basal fractional shortening)*100). The percent reduction in fractional shortening from baseline was calculated as: (100−percent change in fractional shortening from baseline). Maximum contraction and relaxation velocities (um/sec) was also determined. Results from individual cells were averaged and the SEM was calculated.

[3] = system: male Sprague Dawley rats; assay: Echocardiography assessment of acute pharmacodynamic effect on rat cardiac contractility, oral dosing; format: in vivo
Experimental: (§1) Assessment of in vivo cardiac function by echocardiography was performed in male Sprague Dawley rats under isoflurane (1-3%) anesthesia. 2-D M-mode images of the left ventricle were acquired in the parasternal long-axis view before, during, and after administration of compounds by continuous IV infusion or oral gavage. In vivo fractional shortening was determined by M-mode image analysis with the following calculation: ((End diastolic diameter−end systolic diameter)/end diastolic diameter×100). For continuous IV infusion experiments, three pre-dose baseline M-mode images were taken at 1 minute intervals prior to infusion of compound. Compounds were formulated in 50% Propylene Glycol (PG): 16% Captisol: 10% dimethylacetamide (DMA) and delivered via a jugular vein catheter at the rate of 1 mL/kg/h. During infusion, M-mode images were taken at 5 minute intervals. The infusion was stopped when fractional shortening reached up to a 60% reduction from baseline. Blood samples were taken to determine the plasma concentration of the compounds. Data were reported as an estimated IC50 value, which is the concentration at which fractional shortening is 50% of the pre-dose baseline contractility.
For oral dosing studies, three pre-dose baseline M-Mode images were taken at 1 minute intervals prior to compound administration. Compounds were formulated in a 0.5% hydroxypropyl methylcellulose 2910 (HPMC 2910): 0.1% Tween 80 suspension and delivered as a single dose (5 mL/kg) by oral gavage. At one and four hours post-dose, rats were lightly anesthetized for M-mode echocardiography measurement. The compound effect on cardiac fractional shortening are presented as a percent reduction of baseline fractional shortening (=100%) in Table D.
Concurrent with echocardiography measurements, blood samples are taken to determine the corresponding compound plasma concentration, which may be represented as IC50 and IC10 values, which is the concentration at which fractional shortening is 50% and 10% of the pre-dose baseline contractility, respectively.

[4] = system: male Sprague Dawley rats; assay: Echocardiography assessment of acute pharmacodynamic effect on rat cardiac contractility, continuous IV infusion; format: in vivo; settings: estimated plasma concentration at which fractional shortening is 50% of the pre-dose baseline contractility, read-out: IC50 (mean ± SD)
Experimental: as §1

Row | SMILES | CDMF75 IC15 [1] [µM] | % FS (% reduction from baseline) ± SEM ([2]; 10 μM) [%] | % FS (% reduction from baseline) ± SEM ([2]; 5 μM) [%] | IC50 [4] [µM] | further results
1 | CC(C)N1CC(=O)N(Cc2ccc(Cl)cc2)C2(CCN(c3ccccn3)C2)C1=O (single isomer, unassigned) [Compound 373A, 6-[(4-chlorophenyl)methyl]-9-(propan-2-yl)-2-(pyridin-2-yl)-2,6,9-triazaspiro[4.5]decane-7,10-dione] | 0.4 | 76.6 ± 8.8 | – | – | –
2 | O=C1C(C2COC2)N(Cc2ccc(C(F)(F)F)cc2)C(=O)CN1c1ncc(Cl)cc1F (single isomer, unassigned) [Compound 861A, 1-(5-chloro-3-fluoropyridin-2-yl)-3-(oxetan-3-yl)-4-(4-(trifluoromethyl)benzyl)piperazine-2,5-dione] | 1.0 | – | 88.0 ± 3.31 | – | FS (% reduction from baseline) at 1 h (Mean ± SEM) ([3]; 10 mg/kg oral): 13.4 ± 1.6%; FS (% reduction from baseline) at 4 h (Mean ± SEM) ([3]; 10 mg/kg oral): 2.0 ± 3.1%; FS (% reduction from baseline) at 1 h (Mean ± SEM) ([3]; 100 mg/kg oral): 50.0 ± 4.0%; FS (% reduction from baseline) at 4 h (Mean ± SEM) ([3]; 100 mg/kg oral): 48.8 ± 5.0%
3 | CNC(=O)N1CC2(C1)C(=O)N(c1ccc(Cl)cc1)CC(=O)N2Cc1ccc(C(F)(F)F)cc1 [Compound 150, 8-(4-chlorophenyl)-N-methyl-6,9-dioxo-5-(4-(trifluoromethyl)benzyl)-2,5,8-triazaspiro[3.5]-nonane-2-carboxamide] | 1.1 | – | – | 5.44 ± 0.12 | –
4 | CC(=O)N1CC2(C1)C(=O)N(c1ccc(C#N)cc1F)CC(=O)N2Cc1ccc(C(F)(F)F)cc1 [Compound 202, 4-(2-acetyl-6,9-dioxo-5-[[4-(trifluoromethyl)phenyl]methyl]-2,5,8-triazaspiro[3.5]nonan-8-yl)-3-fluorobenzonitrile] | 0.8 | – | 68.4 ± 9.5 | 3.24 ± 0.07 | FS (% reduction from baseline) at 1 h (Mean ± SEM) ([3]; 3 mg/kg oral): 21.88 ± 2.66%; FS (% reduction from baseline) at 4 h (Mean ± SEM) ([3]; 3 mg/kg oral): 11.25 ± 5.54%; FS (% reduction from baseline) at 1 h (Mean ± SEM) ([3]; 15 mg/kg oral): 51.08 ± 1.93%; FS (% reduction from baseline) at 4 h (Mean ± SEM) ([3]; 15 mg/kg oral): 20.18 ± 3.59%
5 | CC(=O)N1CC[C@]2(C1)C(=O)N(c1ccc(C#N)cc1F)CC(=O)N2Cc1ccc(Cl)cc1 [Compound 206, (S)-4-(2-acetyl-6-(4-chlorobenzyl)-7,10-dioxo-2,6,9-triazaspiro[4.5]decan-9-yl)-3-fluorobenzonitrile] | 0.5 | 95.1 ± 1.6 | – | – | –
